Results reported in patent publication EP2022493A1, “Composition comprising at least one optically active phthalamide derivative for controlling animal parasites” (Bayer CropScience AG, priority 2007, dated 2009).

Key:
Lucilia cuprina larvae = experiment: Lucilia cuprina - test (larvae); type: in vivo; conditions: in Ovis aries, read-out: activity (mortality in %)
Method: (§1) Solvent: dimethyl sulfoxide
(§2) To produce a suitable preparation of active compound, 10 mg of active compound are dissolved in 0.5 ml solvent, and the concentrate is diluted with water to the desired concentration.
Approximately 20 -30 (Lucilia cuprina larvae) are transferred into a test tube containing 1cm^3 of minced horse meat and 0.5 ml aqueous dilution of test compound.
After the specified period of time, mortality in % is determined. 100 % means that all the larvae have been killed; 0 % means that none of the larvae have been killed.

[1] = Determination of the logP values by HPLC on reversed-phase column (C 18); type: physicochemical
Method: Determination of the logP values:
The lambda max values were determined in the maxima of the chromatographic signals using the UV spectra from 190 nm to 400 nm.

Boophilus microplus = Boophilus microplus - test (injection into adult ticks); type: in vivo; conditions: application rate of 20 µg/animal; injected into the abdomen of adult ticks; seven days
Method: Boophilus microplus - test Solvent: dimethylsulfoxide To produce a suitable preparation of active compound, 1 part by weight of active compound is mixed with the stated amount of solvent, and the concentrate is diluted with containing solvent to the desired concentration. Adult ticks (Boophilus microplus) are treated by injected with compound solution of the desired concentration into the abdomen. Ticks are transferred into replica plates and incubated in a climate chamber for seven days. Eggs which are not clearly fertile or infertile are further incubated for another 35 days until larvae hatch from the untreated controls. After the specified period of time, the laying of fertile eggs in % is determined. 100 % means that all eggs have been fertile; 0 % means that none of the eggs have been fertile.

Musca domestica = Musca domestica - test; type: in vivo; conditions: adults; for mortality at 100 ppm: application rate of 100ppm; for mortality at 20 ppm: application rate of 20ppm
Method: as §1, §2
Prior to the assay, a piece or kitchen sponge is soaked with a mixture of sugar and compound solution and placed into a container. 10 adults (Musca domestica) are placed into the container and closed with a perforated lid.
After the specified period of time, mortality in % is determined. 100 % means that all the flies have been killed; 0 % means that none of the flies have been killed.

[2] = 0.001 m aqueous nh4hco3/acetonitrile, method [c]: 0.001 molar aqueous NH4HCO3 solution and acetonitrile at pH 7.8, linear gradient from 10 % to 95 % acetonitrile (v/v), HPLC reversed-phase C 18, 40 °C
[3] = 0.1% aqueous phosphoric acid/acetonitrile, method [a]: 0.1% aqueous phosphoric acid and acetonitrile at pH 2.3, linear gradient from 10 to 95 % (v/v) acetonitrile, HPLC reversed-phase C 18, 40 °C
[4] = 0.001 m aqueous nh4hco3/acetonitrile, HPLC, reversed-phase C 18, 40 °C, [c] 0.001 molar aqueous NH4HCO3 solution and acetonitrile at pH 7.8, linear gradient from 10 % to 95 % acetonitrile (v/v)
[5] = 0.1% aqueous phosphoric acid/acetonitrile, HPLC, reversed-phase C 18, 40 °C, [a] 0.1% aqueous phosphoric acid and acetonitrile at pH 2.3, linear gradient from 10 to 95 % (v/v) acetonitrile

Row | Structure (SMILES) | mortality at 100 ppm (Lucilia cuprina larvae) [%] | chromatographic logP [1, 2] | chromatographic logP [1, 3] | activity (laying of fertile eggs in %) (Boophilus microplus) [%] | mortality at 100 ppm (Musca domestica) [%] | chromatographic logP [1, 4] | chromatographic logP [1, 5] | mortality at 20 ppm (Musca domestica) [%]
1 | Cc1cc(C(F)(C(F)(F)F)C(F)(F)F)ccc1NC(=O)c1cccc(I)c1C(=O)N[C@@H](C)CS(C)(=O)=O [Compound 1] | ≥ 80 | 3.2 | 3.18 | ≥ 80 | ≥ 80 |  |  | 
2 | CCSC[C@H](C)NC(=O)c1c(I)cccc1C(=O)Nc1ccc(C(C(F)F)C(F)(F)F)cc1C (stereo partly drawn) [Compound 210] | ≥ 80 |  |  | ≥ 80 | ≥ 80 | 3.62 | 3.63 | 
3 | CCSC[C@H](C)NC(=O)c1c(I)cccc1C(=O)Nc1ccc(C(F)(C(F)F)C(F)(F)F)cc1C (stereo partly drawn) [Compound 218] | ≥ 80 |  |  | ≥ 80 | ≥ 80 | 3.96 | 3.96 | 
4 | CSC[C@H](C)NC(=O)c1c(I)cccc1C(=O)Nc1ccc(C(C(F)F)C(F)(F)F)cc1Br (stereo partly drawn) [Compound 227] | ≥ 80 |  |  | ≥ 80 | ≥ 80 | 3.54 | 3.51 | 
5 | CCSC[C@H](C)NC(=O)c1c(I)cccc1C(=O)Nc1ccc(C(C(F)F)C(F)(F)F)cc1Cl (stereo partly drawn) [Compound 235] | ≥ 80 |  |  | ≥ 80 | ≥ 80 | 3.79 | 3.76 | 
6 | CCSC[C@H](C)NC(=O)c1c(I)cccc1C(=O)Nc1ccc(C(C(F)F)C(F)(F)F)cc1Br (stereo partly drawn) [Compound 243] | ≥ 80 |  |  | ≥ 80 | ≥ 80 | 3.8 | 3.78 | 
7 | CCS(=O)(=O)C[C@H](C)NC(=O)c1c(I)cccc1C(=O)Nc1ccc(C(F)(C(F)F)C(F)(F)F)cc1Cl (stereo partly drawn) [Compound 251] | ≥ 80 |  |  | ≥ 80 | ≥ 80 | 3.18 | 3.12 | 
8 | C[C@@H](CS(C)(=O)=O)NC(=O)c1c(I)cccc1C(=O)Nc1ccc(C(C(F)F)C(F)(F)F)cc1F (stereo partly drawn) [Compound 291] | ≥ 80 |  |  | ≥ 80 | ≥ 80 | 2.54 | 2.5 | 
9 | CCS(=O)(=O)C[C@H](C)NC(=O)c1c(I)cccc1C(=O)Nc1ccc(C(C(F)F)C(F)(F)F)cc1Br (stereo partly drawn) [Compound 299] | ≥ 80 |  |  | ≥ 80 | ≥ 80 | 2.92 | 2.87 | 
10 | CCS(=O)(=O)C[C@H](C)NC(=O)c1c(I)cccc1C(=O)Nc1ccc(C(C(F)F)C(F)(F)F)cc1F (stereo partly drawn) [Compound 315] | ≥ 80 |  |  | ≥ 80 | ≥ 80 | 2.69 | 2.65 | 
11 | Cc1c(NC(=O)c2cccc(I)c2C(=O)N[C@@H](C)C[S+](C)[O-])ccc(C(F)(F)C(F)(F)F)c1F (stereo partly drawn) [Compound 323] | ≥ 80 |  |  | ≥ 80 | ≥ 80 |  | 2.5 | 
12 | Cc1c(NC(=O)c2cccc(Cl)c2C(=O)N[C@@H](C)CS(C)(=O)=O)ccc(C(F)(F)C(F)(F)F)c1F [Compound 363] | ≥ 80 |  |  | ≥ 80 | ≥ 80 |  | 2.82 | 
13 | Cc1cc(C(F)(C(F)F)C(F)(F)F)ccc1NC(=O)c1cccc(Cl)c1C(=O)N[C@@H](C)CS(C)(=O)=O (stereo partly drawn) [Compound 371] | ≥ 80 | 2.64 | 2.61 | ≥ 80 | ≥ 80 |  |  | 
14 | CCS(=O)(=O)C[C@H](C)NC(=O)c1c(Cl)cccc1C(=O)Nc1ccc(C(F)(F)C(F)(F)F)c(F)c1C [Compound 372] | ≥ 80 |  | 3.01 | ≥ 80 |  |  |  | ≥ 80
15 | CSC[C@H](C)NC(=O)c1c(Br)cccc1C(=O)Nc1ccc(C(F)(C(F)(F)F)C(F)(F)F)c(F)c1C [Compound 398] | ≥ 80 |  | 4.31 | ≥ 80 | ≥ 80 |  |  | 
16 | Cc1c(NC(=O)c2cccc(Cl)c2C(=O)N[C@@H](C)C[S+](C)[O-])ccc(C(C(F)(F)F)C(F)(F)F)c1F (stereo partly drawn) [Compound 406] | ≥ 80 | 2.41 | 2.5 | ≥ 80 | ≥ 80 |  |  | 
17 | Cc1cc(C(C(F)(F)F)C(F)(F)F)c(F)cc1NC(=O)c1cccc(Cl)c1C(=O)N[C@@H](C)C[S+](C)[O-] (stereo partly drawn) [Compound 414] | ≥ 80 | 2.51 | 2.58 | ≥ 80 | ≥ 80 |  |  | 
18 | CSC[C@H](C)NC(=O)c1c(I)cccc1C(=O)Nc1ccc(C(F)(C(F)(F)F)C(F)(F)F)c(F)c1C [Compound 423] | ≥ 80 |  | 4.41 | ≥ 80 | ≥ 80 |  |  | 
19 | CCS(=O)(=O)C[C@H](C)NC(=O)c1c(Br)cccc1C(=O)Nc1ccc(C(C)(F)C(F)F)cc1Br (stereo partly drawn) [Compound 424] | ≥ 80 |  | 3.06 | ≥ 80 | ≥ 80 |  |  | ≥ 80
